These are literature values, as cited in patent US20070071809A1, “Ginger containing compositions to control pain” (priority 2005, published 2007).

The subject of this data set is osteoarthritis of the knee. The settings on record: 1500 mg per day.

For `N[C@H]1C(O)O[C@H](CO)[C@@H](O)[C@@H]1O` (some centres unmarked) [Glucosamine], the “knee pain in patients with osteoarthritis of the knee” value (212 patients, half glucosamine, half placebo) is given as “reduce knee pain”. Also, the “pain scores versus placebo group” value (placebo group had worsened pain scores) is on record as “statistically improved pain scores”.
